These are literature values, as cited in US9781921B2, “Emulsifiable concentrate formulation” (Huntsman Corporation Australia Pty Limited, priority 2012, dated 2017).

The series concerns mouse. The note with it: summary of Table 2.

SMILES strings stand for the structures.

Take `CC(=O)OCc1ccccc1` [Benzyl Acetate, benzyl acetate]: the “Toxicity” value is recorded as “relatively low toxicity”.
